In patent US20250195521A1 (Revolution Medicines, Inc., priority 2020, published 2025):
Like-named read-outs stand apart in the source and are kept apart here.

Legend:
[1] = system: NCI-H358 cells (K-Ras G12C); test: CellTiter-Glo cell viability, NCI-H358; type: cell-based, human; conditions: K-Ras G12C, 5-day treatment, read-out: H358 Cell Viability IC50
How it was run: (§1)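 Viability read by luminescence on day 5 after direct compound addition to cells, following ~30 min room-temperature equilibration. Values expressed as percent of mean DMSO signal, curves fitted with a four-parameter logistic model.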

[2] = system: Capan-1 cells (K-Ras G12V); test: CellTiter-Glo cell viability, Capan-1; type: cell-based, human; conditions: K-Ras G12V, 5-day treatment, read-out: Capan-1 Cell Viability IC50
How it was run: as §1

KRAS G12C = KRAS G12C (Homo sapiens (Human), UniProt P01116+P62937, G12C); test: Ras-Raf disruption/FRET/MOA assay (BRAF RBD, Cyclophilin A); type: biochemical; conditions: read-out: KRAS G12C FRET IC50
How it was run: (§2)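 His6-K-Ras-GMPPNP (12.5 nM), GST-BRAF RBD (50 nM) and tagless Cyclophilin A (25 μM) were combined in 25 mM HEPES pH 7.3 with 100 mM NaCl, 5 mM MgCl2, 0.1% BSA and 0.002% Tween20, with compound as a 10-point 3-fold series from 30 μM final, then incubated 3 h at 25° C.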

KRAS G12D = KRAS G12D (Homo sapiens (Human), UniProt P01116+P62937, G12D); test: as above; type: biochemical; conditions: read-out: KRAS G12D FRET IC50
How it was run: as §2

KRAS G12S = KRAS G12S (Homo sapiens (Human), UniProt P01116+P62937, G12S); test: as above; type: biochemical; conditions: read-out: KRAS G12S FRET IC50
How it was run: as §2

KRAS G12V = KRAS G12V (Homo sapiens (Human), UniProt P01116+P62937, G12V); test: as above; type: biochemical; conditions: read-out: KRAS G12V FRET IC50
How it was run: as §2

KRAS G13C = KRAS G13C (Homo sapiens (Human), UniProt P01116+P62937, G13C); test: as above; type: biochemical; conditions: read-out: KRAS G13C FRET IC50
How it was run: as §2

KRAS G13D = KRAS G13D (Homo sapiens (Human), UniProt P01116+P62937, G13D); test: as above; type: biochemical; conditions: read-out: KRAS G13D FRET data IC50
How it was run: as §2

KRAS Q61H = KRAS Q61H (Homo sapiens (Human), UniProt P01116+P62937, Q61H); test: as above; type: biochemical
How it was run: as §2

KRAS WT = KRAS WT (Homo sapiens (Human), UniProt P01116+P62937); test: as above; type: biochemical; conditions: read-out: KRAS WT FRET data IC50
How it was run: as §2

NRAS G12C = NRAS G12C (Homo sapiens (Human), UniProt P01111+P62937, G12C); test: as above; type: biochemical; conditions: read-out: NRAS G12C FRET data IC50
How it was run: (§3)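 TR-FRET read after 1.5 h with 10 nM anti-His Eu-W1024 and 50 nM anti-GST APC, following 3 h at 25 °C of GMPPNP-loaded His6-Ras (12.5 nM), GST-BRAF RBD (50 nM) and Cyclophilin A (25 μM) with compound from 30 μM final, 10 points, 3-fold. IC50 reported; pH 7.3 HEPES, 100 mM NaCl.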

NRAS WT = NRAS WT (Homo sapiens (Human), UniProt P01111+P62937); test: as above; type: biochemical
How it was run: as §3

[3] = system: K-Ras G12C (NCI-H358 cells); test: Potency assay: pERK in NCI-H358 cells; type: cell-based, human; conditions: NCI-H358 cells, 4 hours, read-out: pERK EC50 (H358 KRAS G12C)
How it was run: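 Cells plated the day before were exposed for 4 h at 37° C, 5% CO2 to a 10-point, 3-fold DMSO dilution series (10 mM top stock), in duplicate. Phospho-ERK was read by AlphaLISA SureFire Ultra or by In-Cell Western with DRAQ5 DNA stain, and IC50 came from a 4-parameter sigmoidal fit.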

NCI-H358 (K-Ras G12C) = test: CellTiter-Glo cell viability assay, NCI-H358; type: cell-based, human; conditions: 5-day treatment; read-out: H358 Cell Viability assay data (K-Ras G12C, IC50)
How it was run: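 Viability read-out was luminescent (CellTiter-Glo) on day 5 of compound exposure in K-Ras G12C NCI-H358 cells. Values were expressed as percent of mean DMSO signal and fitted with a four-parameter logistic curve.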

[4] = biological target: K-Ras G12C(GMP-PNP) binding to BRAF RBD (Homo sapiens (Human), UniProt P01116+P62937, G12C); test: Disruption of BRAF RBD interaction with K-Ras (FRET / MOA assay), K-Ras G12C; type: biochemical; conditions: read-out: KRAS G12C FRET IC50
How it was run: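 Incubation of compound (up to 30 μM final, 3-fold steps) with GMP-PNP-type loaded Ras isoform, cyclophilin A and BRAF RBD ran 3 h at 25° C, followed by 1.5 h with detection antibodies. Disruption appears as a reduced TR-FRET ratio compared with DMSO controls, expressed as IC50.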

Chain of NRAS WT (P01111 whole entry): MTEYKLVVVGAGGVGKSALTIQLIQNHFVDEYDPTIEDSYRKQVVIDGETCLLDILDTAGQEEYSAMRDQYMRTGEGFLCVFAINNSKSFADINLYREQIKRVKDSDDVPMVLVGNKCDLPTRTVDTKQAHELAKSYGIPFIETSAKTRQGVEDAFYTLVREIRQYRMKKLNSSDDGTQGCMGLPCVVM
Chain of NRAS WT (P62937 whole entry): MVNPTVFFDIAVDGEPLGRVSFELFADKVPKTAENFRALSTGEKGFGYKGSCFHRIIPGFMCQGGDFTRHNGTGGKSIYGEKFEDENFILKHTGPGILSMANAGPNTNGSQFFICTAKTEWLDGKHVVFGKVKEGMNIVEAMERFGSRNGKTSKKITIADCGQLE
Chain of NRAS G12C (P01111 whole entry G12C): as the sequence (P01111 whole entry) above, with G12C counted along it
Chain of NRAS G12C (P62937 whole entry): as the sequence (P62937 whole entry) above

| IC50 ([1]; Homo sapiens, NCI-H358, 120 h) | IC50 (KRAS G12C) | IC50 (KRAS G12D) | IC50 (KRAS G12S) | IC50 (KRAS G12V) | IC50 (KRAS G13C) | IC50 (KRAS G13D) | IC50 (KRAS Q61H) | IC50 (KRAS WT) | IC50 (NRAS G12C) | IC50 (NRAS WT) | EC50 ([3]; Homo sapiens) | Compound | IC50 ([2]; Homo sapiens, CAPAN-1, 120 h) | IC50 [1] | IC50 [2] | IC50 (NCI-H358 (K-Ras G12C)) | IC50 [4] | EC50 [3] |
| --- | --- | --- | --- | --- | --- | --- | --- | --- | --- | --- | --- | --- | --- | --- | --- | --- | --- | --- |
| 10 to 100 nM | 10 to 100 nM | 100 to 1000 nM | 100 to 1000 nM | 10 to 100 nM | 100 to 1000 nM | 100 to 1000 nM | 10 to 100 nM | 10 to 100 nM | 10 to 100 nM | 10 to 100 nM | < 5000 nM | CCn1c(-c2cccnc2[C@H](C)OC)c2c3cc(ccc31)-c1csc(n1)C[C@H](NC(=O)[C@H](C(C)C)N(C)C(=O)N(C)N(C)C)C(=O)N1CCC[C@H](N1)C(=O)OCC(C)(C)C2 [Compound A454] | 10 to 100 nM | – | – | – | – | – |
| – | 10 to 100 nM | 100 to 1000 nM | 100 to 1000 nM | 100 to 1000 nM | 100 to 1000 nM | 100 to 1000 nM | 10 to 100 nM | 10 to 100 nM | 10 to 100 nM | 10 to 100 nM | < 5000 nM | CCn1c(-c2cccnc2[C@H](C)OC)c2c3cc(ccc31)-c1csc(n1)C[C@H](NC(=O)[C@H](C(C)C)N(C)C(=O)N1CCOC3(COC3)C1)C(=O)N1CCC[C@H](N1)C(=O)OCC(C)(C)C2 [Compound A475] | 10 to 100 nM | – | – | – | – | – |
| – | 10 to 100 nM | 100 to 1000 nM | 10 to 100 nM | 10 to 100 nM | 10 to 100 nM | 100 to 1000 nM | 10 to 100 nM | 10 to 100 nM | 10 to 100 nM | 10 to 100 nM | – | CCn1c(-c2cccnc2[C@H](C)OC)c2c3cc(ccc31)-c1csc(n1)C[C@H](NC(=O)[C@H](C(C)C)N(C)C(=O)N1CC(Cc3cnn(C)c3)C1)C(=O)N1CCC[C@H](N1)C(=O)OCC(C)(C)C2 [Compound A500] | – | – | – | – | – | – |

More lines, now with the values behind:

| Compound | IC50 ([1]; Homo sapiens, NCI-H358, 120 h) | IC50 (KRAS G12C) | IC50 (KRAS G12D) | IC50 (KRAS G12S) | IC50 (KRAS G12V) | IC50 (KRAS G13C) | IC50 (KRAS G13D) | IC50 (KRAS Q61H) | IC50 (KRAS WT) | IC50 (NRAS G12C) | IC50 (NRAS WT) | EC50 ([3]; Homo sapiens) | IC50 ([2]; Homo sapiens, CAPAN-1, 120 h) | IC50 [1] | IC50 [2] | IC50 (NCI-H358 (K-Ras G12C)) | IC50 [4] | EC50 [3] |
| --- | --- | --- | --- | --- | --- | --- | --- | --- | --- | --- | --- | --- | --- | --- | --- | --- | --- | --- |
| CCn1c(-c2cc(N3CCN(C)CC3)cnc2[C@H](C)OC)c2c3cc(ccc31)-c1csc(n1)C[C@H](NC(=O)[C@H](C(C)C)N(C)C(=O)N1CC(C3COC3)C1)C(=O)N1CCC[C@H](N1)C(=O)OCC(C)(C)C2 [Compound A465] | – | 10 to 100 nM | 100 to 1000 nM | 10 to 100 nM | 10 to 100 nM | 10 to 100 nM | 100 to 1000 nM | 10 to 100 nM | 10 to 100 nM | 10 to 100 nM | 10 to 100 nM | – | – | – | – | – | – | – |
| CCO[C@@H]1c2nc(cs2)-c2ccc3c(c2)c(c(-c2cccnc2[C@H](C)OC)n3CC)CC(C)(C)COC(=O)[C@@H]2CCCN(N2)C(=O)[C@H]1NC(=O)[C@H]1[C@H](C)[C@@H]1c1cn(C)cn1 [Compound A507, (1R,2S,3R)—N-((6^3S,3S,4S,Z)-3-ethoxy-1^1-ethyl-1^2-(2-((S)-1-methoxyethyl)pyridin-3-yl)-10, 10-dimethyl-5,7-dioxo-6^1,6^2,6^3,6^4,6^5,6^6-hexahydro-1^1H-8-oxa-2 (4,2)-thiazola-1 (5,3)-indola-6 (1,3)-pyridazinacycloundecaphane-4-yl)-2-methyl-3-(1-methyl-1H-imidazol-4-yl) cyclopropane-1-carboxamide] | – | 10 to 100 nM | 10 to 100 nM | 10 to 100 nM | 10 to 100 nM | 10 to 100 nM | – | 10 to 100 nM | – | – | – | – | – | 10 to 100 nM | 100 to 1000 nM | 100 to 1000 nM | 100 to 1000 nM | – |
| (2S)—N-[(8S,14S)-22-ethyl-4-hydroxy-18, 18-dimethyl-21-[6-(4-methylpiperazin-1-yl) pyridin-3-yl]-9,15-dioxo-16-oxa-10,22,28-triazapentacyclo [18.5.2.1^2,6.1^10,14.0^23,27]nonacosa-1 (26), 2,4,6 (29), 20,23 (27),24-heptaen-8-yl]-3-methyl-2-{N-methyl-1-[(3S)-1-(prop-2-enoyl) pyrrolidin-3-yl]formamido}butanamide [Compound A89] | – | 100 to 1000 nM | 100 to 1000 nM | 100 to 1000 nM | 100 to 1000 nM | 10 to 100 nM | – | 10 to 100 nM | – | – | – | – | – | – | 1000 to 10000 nM | 10 to 100 nM | – | < 5000 nM |
